From US20090253755A1, “N-[(PYRIDIN-2-YL) METHOXY] BENZAMIDE DERIVATIVES AND RELATED COMPOUNDS AS FUNGICIDES” (Bayer Cropscience SA, priority 2006, published 2009)

Test system: Alternaria alternata
Experiment: Cell test on Alternaria alternata
Type: cell-based
Details: under similar conditions (cell test, 2 ppm)
Procedure: Cell Test on Alternaria alternata
The growth of Alternaria alternata is performed on PDA medium at 20° C. under black light during 14 days. The PDA medium is prepared by mixing 39 grams of PDA (Merck) in 1 liter of demineralized water.
The medium is sterilized by autoclave 15 minutes at 121° C. After 14 days of growth, the spores of Alternaria alternata are recovered in sterilized water and the concentration of spores adjusted to 10^6 spores per ml.
The compounds is solubilized in DMSO and added to sterile liquid glucose/mycopeptone medium (14.6 g/l of D-glucose, 7.1 g/l of mycological peptone (Oxoid) and 1.4 g/l of yeast extract (Merck)) at a concentration of 2 ppm.
The medium is inoculated with the spore suspension at a concentration of 10^5 spores per ml.
The efficacy of the compounds is assessed by OD measurement at 620 nm after 5 days at 20° C. in comparison with a control.

SMILES	activity
O=C(NOCc1ncc(C(F)(F)F)cc1Cl)c1c(Cl)cccc1Cl [Compound 501, 2,6-dichloro-N-{[3-chloro-5-(trifluoromethyl)pyridin-2-yl]methoxy}benzamide]	did not show any activity
O=C(NOCc1ncc(C(F)(F)F)cc1Cl)c1c(F)cccc1F [Compound 502, N-{[3-chloro-5-(trifluoromethyl)pyridin-2-yl]methoxy}-2,6-difluorobenzamide]	did not show any activity
